Experimental data reported in ChEMBL document CHEMBL5728583, “Galactoside inhibitor of galectins” (2021).

Tests used:
Galectin-3 = Galectin-3 (Homo sapiens, UniProt P17931); assay: fluorescence anisotropy assay: The affinity of Example 1-33 for galectins were determined by a fluorescence anisotropy assay where the compound was used as an inhibitor of the interaction between galectin and a fluorescein tagged saccharide probe as described Sörme, P., Kahl-Knutsson, B., Huflejt, M., Nilsson, U. J., and Leffler H. (2004) Fluorescence polarization as an analytical tool to evaluate galectin-ligand interactions. Anal. Biochem. 334: 36-47, (Sörme et al., 2004) and Monovalent interactions of Galectin-1 By Salomonsson, Emma; Larumbe, Amaia; Tejler, Johan; Tullberg, Erik; Rydberg, Hanna; Sundin, Anders; Khabut, Areej; Frejd, Torbjorn; Lobsanov, Yuri D.; Rini, James M.; et al, From Biochemistry (2010), 49(44), 9518-9532, (Salomonsson et al., 2010).
Galectin-1 = Galectin-1 (Homo sapiens, UniProt P09382); assay: fluorescence anisotropy assay: The affinity of Example 1-33 for galectins were determined by a fluorescence anisotropy assay where the compound was used as an inhibitor of the interaction between galectin and a fluorescein tagged saccharide probe as described Sörme, P., Kahl-Knutsson, B., Huflejt, M., Nilsson, U. J., and Leffler H. (2004) Fluorescence polarization as an analytical tool to …
Chain of Galectin-1 (P09382 whole entry): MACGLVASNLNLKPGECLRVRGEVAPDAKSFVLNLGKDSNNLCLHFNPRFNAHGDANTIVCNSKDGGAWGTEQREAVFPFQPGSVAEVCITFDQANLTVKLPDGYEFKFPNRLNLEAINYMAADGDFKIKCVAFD

Chain of Galectin-3 (P17931 whole entry): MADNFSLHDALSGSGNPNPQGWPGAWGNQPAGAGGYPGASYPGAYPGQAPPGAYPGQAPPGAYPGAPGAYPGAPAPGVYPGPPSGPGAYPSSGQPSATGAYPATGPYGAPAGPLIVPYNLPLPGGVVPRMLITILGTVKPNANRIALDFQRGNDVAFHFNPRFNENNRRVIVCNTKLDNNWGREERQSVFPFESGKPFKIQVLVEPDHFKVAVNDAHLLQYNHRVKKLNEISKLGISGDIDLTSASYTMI

Kd (Galectin-3): 1700 nM | Kd (Galectin-1): 650 nM
SMILES: OC[C@H]1O[C@H](Sc2ccc(Cl)c(Cl)c2)[C@H](O)[C@@H](n2cc(-c3nc(O)cs3)nn2)[C@H]1O
